The values below come from patent publication US20100056552A1, “COMBINATION FOR USE IN THE TREATMENT OF INFLAMMATORY DISORDERS” (priority 2007, published 2010).

Structures are written as SMILES.

Data set [1] concerns MonoMac-6 (MM6) cells. The data set can be described thus: PMA-induced TNF release from MonoMac-6 macrophages (Human TNF ELISA). The format is cell-based. The note with it: n=2; for mean TNF concentration after PMA stimulation: 48 h treatment, then PMA 10 ng/mL 5 h, untreated cells 41.1 pg/mL. The method, then: (§1) Cells from the human macrophage cell-line MonoMac-6 (MM6) (Ziegler-Heitbrock et al, Int. J. Cancer, 41, 456 (1988)) were cultured (37° C./5% CO2) in RPMI-1640 medium supplemented with 1 mM sodium pyruvate, × nonessential amino acids, 10 μg/mL insulin, 1 mM oxalacetic acid, 100 units/mL penicillin, 100 μg/mL streptomycin and 5% (v/v) fetal bovine serum. At the start of the experiment, MM6 cells were seeded in 96-well plates at a density of 1×10^5 cells/mL (100 μL per well in cell the viability experiments, and 150 μL per well in the TNF release experiments—see below).
(§2) The MM6 cells were treated (incubation conditions as above) with indicated final concentrations of the test drugs for 48 hours prior to quantification of cell viability/growth or stimulation with phorbol-12-myristate-13-acetate (PMA; Sigma Aldrich, Stockholm, Sweden) followed by measurement of PMA-induced TNF-release (see below for details).
To stimulate formation and release of tumor necrosis factor (TNF), the MM6 cells were incubated (37° C./5% CO2) for five hours (in RPMI-1640 with 5% fetal bovine serum with supplements as above) with PMA at a final concentration of 10 ng/mL.
After spinning down the cells after the different MM6 incubations/stimulations (see above and below), the concentrations of TNF in the supernatants were quantitated using Human TNF ELISA Kit II from BD Biosciences—Pharmingen (San Diego, USA) according to instructions supplied by the manufacturer.
(§3) Stock solutions of suplatast (tosylate salt purchased from American Custom Chemicals Corporation, San Diego, USA) and rosuvastatin (sodium salt; rosuvastatin was extracted and purified from commercially available Crestor® tablets and isolated as sodium salt as described in Bioorganic & Medicinal Chemistry, Vol. 5, No. 5, pp 437-444, 1997) were made in sterile saline.
For orientation: ELISA stands for enzyme-linked immunosorbent assay.

Data set [2] in a line: MM6 cell growth/viability (WST-1 reagent). The format is cell-based. To be noted: human, MonoMac-6 (MM6) macrophage cell line, n=3, read-out: viability of MM6 cells compared to untreated MM6 cells; for viability at 48 h, 10 μM: drug alone 10 μM. The method, then:
as §1, §2
MM6 cell growth/viability was measured using the Cell Proliferation Reagent WST-1 (Roche Diagnostics Scandinavia AB, Bromma, Sweden). The WST-1 reagent is designed to be used for spectrophotometric quantification of e.g. cell growth and viability and. was used according to the manufacturers' instructions.
as §3
For orientation: Formazan colour is commonly taken as a measure of viable cells.

With `CC(C)c1c(C(=O)Nc2ccccc2)c(-c2ccccc2)c(-c2ccc(F)cc2)n1CC[C@@H](O)C[C@@H](O)CC(=O)O` [atorvastatin], the “mean TNF concentration after PMA stimulation” value came out at 133.6 pg/mL in data set [1] (drug alone 10 μM) and 59.7 pg/mL in data set [1] (drug alone 30 μM).

For the molecule `CC(C)c1nc(N(C)S(C)(=O)=O)nc(-c2ccc(F)cc2)c1/C=C/[C@@H](O)C[C@@H](O)CC(=O)O` [rosuvastatin], the viability at 48 h, 10 μM in data set [2] was found to be 105%. In addition, the viability at 48 h, 30 μM in data set [2] (drug alone 30 μM) was found to be 102%. Besides, the entries for the “mean TNF concentration after PMA stimulation” value in data set [1] (drug alone 10 μM) and in data set [1] (drug alone 30 μM) were 76.7 pg/mL and 84.0 pg/mL, respectively.

In the case of `CCOCC(O)COc1ccc(NC(=O)CC[S+](C)C)cc1` (stereo not drawn) [suplatast], the viability at 48 h, 1 μM in data set [2] (drug alone 1 μM) is 94%. The viability at 48 h, 10 μM in data set [2] is 92%. For the same molecule, in data set [1] (drug alone 1 μM), the “mean TNF concentration after PMA stimulation” value turned out to be 39.6 pg/mL and the “decrease in mean TNF concentration compared to the untreated cells” value came to 3.8%. For the same molecule, in data set [1] (drug alone 10 μM), the “mean TNF concentration after PMA stimulation” value is 34.8 pg/mL and the “decrease in mean TNF concentration compared to the untreated cells” value turned out to be 15.4%.

What is called viability is a read-out of living cells in per cent, often relative to untreated cells.
